Data: patent publication EP3685668B1, “COMPOSITION COMPRISING ACIBENZOLAR-S-METHYL AS EFFECTIVE INGREDIENT FOR CONTROLLING BURSAPHELENCHUS XYLOPHILUS DISEASE AND METHOD FOR CONTROLLING BURSAPHELENCHUS XYLOPHILUS USING SAME” (Industry Foundation of Chonnam National University, priority 2017, dated 2019)

Key:
[1] = system: Bursaphelenchus xylophilus; assay: Occurrence of pine wilt disease after trunk injection of induced resistance candidate materials, in vivo test in young red pine trees; settings: red pine tree (Pinus densiflora), trunk injection 100 µℓ per tree, 30 days after inoculation
Protocol: By using the 15 types of an induced resistance elicitors which have been known to induce the plant resistance against various diseases as candidates, their controlling effect against pine wilt disease was examined. The control efficacy of candidates against pine wilt disease was analyzed according to an in vivo test using red pine tree (Pinus densiflora) which was 2-year old young pine trees (diameter of 5.5 mm or so, and height of about 35 mm).
As a candidate group of an induced resistance material, two kinds of acibenzolar-S-methyl (ASM), TDL (Tiadinil), ITL (Isotianil), PBZ (Probenzole), AZO (Azoxystrobin), VMA (Validamycin A), MeJA (Methyl jasmonate), BABA (DL-3-aminobutyric acid), 2,3-BDO (2,3-Butanediol), SA (salicyclic acid), GABA (r-Aminobutyric acid), glucan (Glucan), ER (Ergosterol), and AZA (Azelaic acid) were used. Only the use of acibenzolar-S-methyl is according to the invention. Injection of the chemicals was carried out by trunk injection method, i.e., at an angle of 45°, a borehole was created by using an electric drill with thickness of 1.5 mm on a pine stem part that is 5 to 10 cm above the soil surface, a tip (200 µℓ) was inserted to the hole, and, after dissolving the candidate material at concentration level of 200, 20, or 2 µg/mℓ in each solvent, the solution was injected in an amount of 100 µℓ per pine tree. After the injection of the chemical agent, the end part of the tip was sealed with parafilm.
The pine tree wilt nematodes (Bursaphelenchus xylophilus, National Institute of Forest Science (NIFoS), South Korea) was incubated at 25°C by feeding them with Botrytis cinerea, which have been cultured on a potato dextrose agar (PDA) medium, and after one week incubation, they were collected by Baermann funnel method and were adjusted to the level of 20,000 worms/mℓ by examining the number of the worms under an optical microscope. One week after the chemical treatment, the inoculation of the pine tree wilt nematodes was carried out by tree barking inoculation of 100 µℓ, i.e., 2,000 worms, per tree, and the result was determined 30 days after the inoculation. […] [Table 1] Occurrence rate of pine wilt disease in candidate group of induced resistance materials

[2] = system: Bursaphelenchus xylophilus; assay: In vitro nematicidal activity, 96-well microplate; settings: after 3 days
Protocol: To test the nematicidal activity of acibenzolar-S-methyl, a suspension of Bursaphelenchus xylophilus was diluted in a 96-well microplate to have 50 worms/99 µℓ in each well and used for the treatment. […] Each treatment was repeated 3 times, and "A Pharm" (emamectin benzoate, 2.15%), which is a chemical pesticide, was used as a control group. After the treatment, the 96-well plate was kept in a plastic box having water-soaked wipes spread on the bottom to maintain 100% humidity, and, after covering the box with black cloth, the box was stored in a dark state with blockage of light. The observation was made after 3 days. […] [Table 2] Nematicidal activity of acibenzolar-S-methyl against Bursaphelenchus xylophilus

[3] = system: Bursaphelenchus xylophilus; assay: Control efficacy against pine wilt disease by trunk injection, foliar spraying or soil drenching, greenhouse, red pine trees; format: in vivo; settings: red pine tree, Trunk injection, 20,000 µg/mℓ, observed for 80 days
[4] = system: Bursaphelenchus xylophilus; assay: as above; format: in vivo; settings: red pine tree, observed for 80 days
Protocol: The control efficacy of acibenzolar-S-methyl, which shown to have the highest activity in Example 1, was determined by three different treatment methods, i.e., trunk injection, foliar spraying, and soil drenching. For in vivo pathogenesis test, 2-year old young red pine trees (diameter of 5.5 mm or so, and height of about 35 mm) were used like Example 2.
For the trunk injection, a borehole was created at an angle of 45° by using an electric drill with thickness of 1.5 mm on a pine stem part that is 5 to 10 cm above the soil surface, a tip (200 µℓ) was inserted to the hole, and the working solution of chemicals was injected in an amount of 100 µℓ per pine tree after dissolving acibenzolar-S-methyl at concentration of 0.2 or 10 mg/mℓ in an aqueous solution containing 10% acetone and 10% methanol. After the treatment, the end part of the tip was sealed with parafilm, and a small hole was created thereon as an airflow hole. For the foliar spraying, a pre-treatment with Tween 20 (250 µg/mℓ) was carried out at 5 mℓ per pine tree to help the adsorption of the chemical on pine leaves, followed by drying for 2 hours. After drying, acibenzolar-S-methyl was dissolved at concentration of 1.6 mg/mℓ in an aqueous solution containing 10% acetone and Tween 20 (250 µg/mℓ) and the dissolved solution was filled in microsprayer and was applied 5 mℓ per pine tree by foliar spraying. For the soil drenching, acibenzolar-S-methyl was dissolved at concentration level of 0.2 mg/mℓ in an aqueous solution containing 10% acetone and Tween 20 (250 µg/mℓ), and this solution was used for soil drenching in a pot with planted pine tree, 40 mℓ per pine tree. […] [Table 3] The control efficacy of acibenzolar-S-methyl against pine wilt disease by various treatment methods

[5] = Foliar spraying, 1,600 µg/mℓ, 5 mℓ per tree
[6] = Soil drenching, 200 µg/mℓ, 40 mℓ per tree

`O=C(O)c1ccccc1O` [SA, salicyclic acid] was tested, and the “Occurrence rate of pine wilt disease: Number of pine trees showing wilt symptoms / Number of pine trees used for the test” value ([1]; 2 µg/mℓ) was 2/3, the “Occurrence rate of pine wilt disease: Number of pine trees showing wilt symptoms / Number of pine trees used for the test” value ([1]; 20 µg/mℓ) was 1/3 and the “Occurrence rate of pine wilt disease: Number of pine trees showing wilt symptoms / Number of pine trees used for the test” value ([1]; 200 µg/mℓ) was 0/3.

For emamectin benzoate, the “Nematicidal rate (%)” value ([2]; 0.11 µg/mℓ) was 98.77%, the “Nematicidal rate (%)” value ([2]; 0.33 µg/mℓ) was 100% and the “Nematicidal rate (%)” value ([2]; 1 µg/mℓ) was 100%. For the same compound, the “Control value (%)” value [3] was 100%, the “Disease occurrence rate (%)” value [3] was 0% and the “Control value (%)” value [4, 5] was 10%. For the same compound, the “Disease occurrence rate (%)” value [4, 5] was 64%, the “Control value (%)” value ([4]; Foliar spraying, 1,600 µg/mℓ, 5 mℓ per tree, listed as emamectin benzoate) was “no control activity” and the “Control value (%)” value [4, 6] was 1%. For the same compound, the “Disease occurrence rate (%)” value [4, 6] was 70%, the “Control value (%)” value ([4]; Soil drenching, 200 µg/mℓ, 40 mℓ per tree, listed as emamectin benzoate) was “no control activity” and the “Control value (%)” value ([4]; Trunk injection, 200 µg/mℓ) was 7%. The “Disease occurrence rate (%)” value ([4]; Trunk injection, 200 µg/mℓ) was 66% and the “Control value (%)” value ([4]; Trunk injection, 200 µg/mℓ, listed as emamectin benzoate) was “not shown at all”.
